Laboratory results reported in patent US5605929A, “Methods and compositions for inhibiting 5α-reductase activity” (priority 1995, dated 1997).
Entries after “also recorded” stand apart in the source; their conditions may differ. Blank lines part the entries; values can stand above or below the compound they belong to.

Key:
5α-reductase = 5α-reductase inhibition stated in words; format: biochemical
5α-reductase / prostate = conditions: cited from earlier work
prostate = conditions: dog, in vivo; cited from earlier work
scalp baldness = conditions: cited from earlier work; for baldness: topical to scalp
rat pituitary cultures = conditions: cited from earlier work
[1] = molecular target: T1, 5α-Reductase of Rat Liver Microsomes (Rattus norvegicus, UniProt P24008); assay: biochemical
T1 sequence (P24008 1-259): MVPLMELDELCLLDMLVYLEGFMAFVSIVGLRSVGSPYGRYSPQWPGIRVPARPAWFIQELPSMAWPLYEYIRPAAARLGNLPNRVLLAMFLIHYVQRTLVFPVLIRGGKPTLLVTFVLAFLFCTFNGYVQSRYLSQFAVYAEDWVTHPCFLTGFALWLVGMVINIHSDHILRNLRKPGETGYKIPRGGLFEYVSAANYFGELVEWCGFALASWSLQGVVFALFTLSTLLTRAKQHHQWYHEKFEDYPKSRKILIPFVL

[2] = molecular target: T1, 5α-Reductase of Rat Liver Microsomes; assay: [3H]4-MA binding assay, rat liver microsomes (tea catechins)
Method in brief: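 Microsomes from adult female Sprague-Dawley rat liver or Rat-1A cells expressing human 5α-reductase, 25 μg protein per reaction. Incubation 30–60 min at 0 °C; microsome-bound [3H]4-MA collected on glass-fibre filters and counted. Duplicate or triplicate determinations, values based on reaction rate.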

[3] = molecular target: T2, human 5α-reductase isozyme type 1 (Homo sapiens, UniProt P18405); assay: [3H]4-MA binding, human type 1 isozyme expressed in Rat-1A cells; conditions: read-out: % Inhibition of [^3 H]4-MA binding
T2 construct: expressed in transfected cells; host or cells: Rat-1A cells infected with pMV7 retrovirus; microsomes of these cells
T2 sequence (P18405 1-259): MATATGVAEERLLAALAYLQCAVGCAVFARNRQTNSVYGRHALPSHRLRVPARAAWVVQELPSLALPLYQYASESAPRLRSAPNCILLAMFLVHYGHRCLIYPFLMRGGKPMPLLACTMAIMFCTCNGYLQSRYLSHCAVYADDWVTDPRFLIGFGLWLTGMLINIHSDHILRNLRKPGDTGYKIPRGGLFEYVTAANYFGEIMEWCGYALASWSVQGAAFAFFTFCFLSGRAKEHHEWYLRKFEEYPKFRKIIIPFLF
Text: (§1) The cDNAs for the human type 1 and 2 5α-reductases were isolated from human prostate λZAP II™ cDNA libraries using the published sequence of the 5α-reductases, PCR™ and standard library screening techniques (Sambrook et al., 1989). The type 1 and 2 cDNAs correspond to nucleotides 31-870 and 28-829, respectively, of the published sequences for these 5α-reductases (Anderson and Russell, 1990; Anderson et al., 1991). The type 1 and 2 cDNAs were subcloned into the retroviral expression vector pMV7 (Kirschmeier et al., 1988) and high titer stocks of virus containing the type 1 and 2 cDNAs were generated using the packaging cells BOSC 23 293 (Kirschmeier et al., 1988). Rat.-1A cells (Pear et al., 1993) were infected with virus (Topp, 1981) and cells containing integrated retrovirus were selected for G418-SO4 resistance, (Brown and Scott, 1987).
(§2) Microsomes were prepared as described previously (Liang and Liao, 1992) from the liver of adult Sprague-Dawley female rats or Rat-1A cells expressing a specific type of human 5α-reductase. […] The data presented was based on the rate of reaction.
(§3) [^3 H]4-MA binding assay were described in detail previously (Liang and Liao, 1992; Liang et al., 1983). […] The reaction was started by the addition of 25 μl of microsomes (25 μg protein). After 30-60 min incubation at 0° C., the [^3 H]4-MA bound to microsomes was collected on a Whatman GF/F glass fiber, washed and radioactivity determined (Liang and Liao, 1992).

[4] = molecular target: T3, human 5α-reductase isozyme type 2 (Homo sapiens, UniProt P31213); assay: [3H]4-MA binding, human type 2 isozyme expressed in Rat-1A cells
T3 construct: expressed in transfected cells; host or cells: Rat-1A cells infected with pMV7 retrovirus; microsomes of these cells
T3 sequence (P31213 1-254): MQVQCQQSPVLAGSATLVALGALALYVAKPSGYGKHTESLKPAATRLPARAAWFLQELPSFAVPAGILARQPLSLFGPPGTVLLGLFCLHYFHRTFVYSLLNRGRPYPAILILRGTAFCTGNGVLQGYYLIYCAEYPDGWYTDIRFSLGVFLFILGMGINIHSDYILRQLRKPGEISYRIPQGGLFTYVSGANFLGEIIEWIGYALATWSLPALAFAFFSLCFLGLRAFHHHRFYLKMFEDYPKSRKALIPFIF
Text: as §1, §2, §3

[5] = molecular target: T2, human 5α-reductase isozyme type 1; assay: 4-[14C]testosterone reduction, human type 1 isozyme; format: biochemical
Text: as §1, §2
(§4) The reaction was started by the addition of 25 μl of microsomes (25 μg protein). The mixture was incubated at 37° for 30-60 min and stopped by addition of 0.5 ml of ethyl acetate and mixing for 1 min. The organic solvent extract was removed under vacuum.

[6] = molecular target: T3, human 5α-reductase isozyme type 2; assay: 4-[14C]testosterone reduction, human type 2 isozyme; format: biochemical
Text: as §1, §2, §4

[7] = NADPH oxidation in presence of microsomes
[8] = test system: prostate and preputial organ; assay: Catechins ip 7 days, large rats; format: in vivo, rat; conditions: 15 mg ip/day, 7 days
Procedure: Male Sprague Dawley rats, 172±20 g body weight, were used. Each group had 5 rats. […] The control rats received 0.3 ml of 30% ethanol.

[9] = test system: androgen-dependent organs; format: in vivo, rat
Procedure: The control rats were injected with 0.3 ml of 30% ethanol.

type 1 5α-reductase [10] = format: biochemical
Procedure: as §3, §4

Soybean lipoxygenase = Soybean lipoxygenase (Glycine max, UniProt P08170); conditions: cited from earlier work
Soybean lipoxygenase, sequence (P08170 whole entry): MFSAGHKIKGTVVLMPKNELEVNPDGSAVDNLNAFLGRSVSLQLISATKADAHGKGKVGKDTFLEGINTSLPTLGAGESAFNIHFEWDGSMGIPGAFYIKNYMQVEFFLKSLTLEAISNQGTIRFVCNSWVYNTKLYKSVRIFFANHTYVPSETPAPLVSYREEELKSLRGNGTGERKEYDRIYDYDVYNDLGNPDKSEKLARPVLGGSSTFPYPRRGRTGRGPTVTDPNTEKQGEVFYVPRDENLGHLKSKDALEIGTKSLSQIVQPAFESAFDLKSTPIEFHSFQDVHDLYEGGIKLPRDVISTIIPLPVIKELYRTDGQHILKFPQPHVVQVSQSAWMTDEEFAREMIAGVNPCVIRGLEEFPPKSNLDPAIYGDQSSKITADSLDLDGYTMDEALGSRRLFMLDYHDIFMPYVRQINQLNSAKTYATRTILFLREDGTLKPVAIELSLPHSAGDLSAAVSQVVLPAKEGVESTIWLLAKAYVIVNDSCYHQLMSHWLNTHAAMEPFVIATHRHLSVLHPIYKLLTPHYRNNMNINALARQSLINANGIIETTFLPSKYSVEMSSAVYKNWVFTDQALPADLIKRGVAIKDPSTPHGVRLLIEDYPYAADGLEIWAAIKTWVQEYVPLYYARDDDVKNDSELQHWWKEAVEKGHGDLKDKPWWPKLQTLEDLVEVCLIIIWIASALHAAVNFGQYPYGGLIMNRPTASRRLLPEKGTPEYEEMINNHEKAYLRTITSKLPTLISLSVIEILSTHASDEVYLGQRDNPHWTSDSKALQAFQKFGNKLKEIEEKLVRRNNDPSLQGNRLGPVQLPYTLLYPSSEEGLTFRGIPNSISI

[11] = molecular target: human type 1 and 2 5α-reductase isozymes (Homo sapiens, UniProt P18405); conditions: cited from earlier work
[12] = test system: human type 1 and 2 5α-reductase isozymes; conditions: human; cited from earlier work
[13] = test system: plasma 5α-DHT and prostate; conditions: BPH patients; cited from earlier work
type 1 5α-reductase [14] = molecular target: type 1 5α-reductase (Homo sapiens, UniProt P18405); conditions: cited from earlier work
PC-3 = assay: 5α-DHT formation from [3H]testosterone by PC-3 cells; format: cell-based, human
[15] = test system: 17β-steroid dehydrogenase; assay: 4-Androstenedione formation from [3H]testosterone by PC-3 cells (17β-steroid dehydrogenase); format: cell-based, human
hamster flank organ = assay: Flank organ, castrated immature male hamsters, topical treatment; format: in vivo, Syrian golden hamster
Procedure: One to two weeks after castration, the hair on the lower back of each animal was clipped with an electric hair clipper and then shaved weekly to expose the flank organs. The animals were divided into 5 animals/treatment group. A treatment solution (5 μl) was applied topically to the right flank organ once a day using a Pipetteman and a polypropylene disposable tip. Unless specified the left flank organ was not treated. The treatment solution contained either (a) ethanol alone (vehicle and control), (b) an androgen (T or 5α-DHT), (c) a fatty acid, or (d) a combination of an androgen and a fatty acid. The flank organ was wiped with an alcohol pad to remove residual compound before each treatment. […] The flank organs, both the treated and untreated sides, were evaluated with methods to be described below to determine the effect of these treatments of the growth of the pigmented macules and the sebaceous glands. The body weight of each animal was recorded before and after treatment.
The data are presented as mean ± standard deviation. […]

[16] = test system: Human Prostatic Cancer Cells; assay: Cell morphology during 2 hour incubation; format: cell-based
[17] = read-out: % Inhibition of [^3 H]4-MA binding
[18] = read-out: % Inhibition of 5α-reduction

- 5α-reductase inhibition (5α-reductase): potent inhibitor of 5α-reductase
SMILES: O=C(OCc1cc(O)c(O)c(O)c1)c1cc(O)c(O)c(O)c1

- Ki [1]: 0.013 µM
SMILES: CCN(CC)C(=O)[C@H]1CC[C@H]2[C@@H]3CC[C@H]4N(C)C(=O)CC[C@]4(C)[C@H]3CC[C@]12C [4-MA, 17β-N,N-diethylcarbamoyl-4-methyl-4-aza-5α-androstan-3-one]
- effect on prostate growth (5α-reductase / prostate; castrated rats + testosterone): attenuated the growth of the prostate
- effect on prostatic 5α-DHT (5α-reductase / prostate; intact or castrated male rats given testosterone propionate): decreasing the prostatic concentration of 5α-DHT
- prostate size (prostate): the prostate size decreases
- baldness (scalp baldness): prevented the baldness; also recorded: effective in preventing male pattern baldness
- testosterone inhibition of LH release (rat pituitary cultures): did not affect testosterone inhibition of LH release

SMILES: O=C(O[C@@H]1Cc2c(O)cc(O)cc2O[C@@H]1c1ccc(O)c(O)c1)c1cc(O)c(O)c(O)c1 [ECG, (-)Epicatechin-3-gallate]
- inhibition at 5 µM [2, 17]: 25%
- inhibition at 10 µM [2, 17]: 44%
- inhibition at 20 µM [2, 17]: 74%
- inhibition at 40 µM [2, 17]: 88%
- inhibition at 200 µM [2, 17]: 92%
- IC50 ([2]; type 1 5α-reductase of rat liver microsomes, read-out: IC50): 12 µM
- inhibition at 1 µM [3]: 34%
- inhibition at 3 µM [3]: 47%
- inhibition at 10 µM [3]: 79%
- inhibition at 30 µM [3]: 87%
- inhibition at 100 µM [3]: 79%
- inhibition at 1 µM [4, 17]: 17%
- inhibition at 3 µM [4, 17]: 17%
- inhibition at 10 µM [4, 17]: 45%
- inhibition at 30 µM [4, 17]: 76%
- inhibition at 100 µM [4, 17]: 80%
- IC50 ([5]; enzymatic assay): ~10 µM
- inhibition at 1 µM [5, 18]: 20%
- inhibition at 3 µM [5, 18]: 27%
- inhibition at 10 µM [5, 18]: 47%
- inhibition at 30 µM [5, 18]: 90%
- inhibition at 100 µM [5, 18]: 99%
- activity on type 2 isozyme ([6]; enzymatic assay, concentrations below 30 μM for ECG/EGCG): did not inhibit the Type 2 isozyme
- inhibition at 1 µM [6, 18]: < 10%
- inhibition at 3 µM [6, 18]: < 10%
- inhibition at 10 µM [6, 18]: < 10%
- inhibition at 30 µM [6, 18]: < 10%
- inhibition at 100 µM [6, 18]: 82%
- NADPH oxidation [7]: did not induce NADPH oxidation
- effect on the body weights [8]: less than 10%
- effect on all organs examined ([9]; 10 and 15 mg per day): less than 20%
- effect on the body weight ([9]; up to 15 mg per day): No significant effect
- competition with testosterone or NADPH (type 1 5α-reductase [10]): did not appear to compete with testosterone or NADPH
- IC50 (Soybean lipoxygenase): 18 µM

SMILES: CC(C)(C)NC(=O)[C@H]1CC[C@H]2[C@@H]3CC[C@H]4NC(=O)C=C[C@]4(C)[C@H]3CC[C@]12C [Finasteride, 17β-N-t-butylcarbamoyl-4-aza-5α-androst-1-en-3-one, reference compound]
- inhibition at 0.001 µM [3]: < 10%
- inhibition at 0.003 µM [3]: < 10%
- inhibition at 0.01 µM [3]: < 10%
- inhibition at 0.03 µM [3]: < 10%
- inhibition at 0.1 µM [3]: < 10%
- inhibition of type 2 isozyme expressed in Rat-1A cells [4]: inhibited the type 2 isozyme
- inhibition at 0.001 µM [4, 17]: < 10%
- inhibition at 0.003 µM [4, 17]: < 10%
- inhibition at 0.01 µM [4, 17]: 22%
- inhibition at 0.03 µM [4, 17]: 44%
- inhibition at 0.1 µM [4, 17]: 67%
- sensitivity of type 1 isozyme [11]: rather insensitive
- sensitivity of type 2 vs type 1 isozyme to inhibition (times) [12]: 30 times
- serum 5α-DHT and hair (scalp baldness; 0.5 mg/day oral, alone or with topical 2% Minoxidil): reduced serum 5α-DHT level
- baldness (scalp baldness): effective in preventing male pattern baldness
- plasma 5α-DHT and prostate size [13]: decreases the plasma level of 5α-DHT and the size of the prostate

SMILES: CN1C(=O)CC[C@@H]2c3ccc(Cl)cc3CC[C@H]21 [LY191704]
- type 1 5α-reductase selectivity (type 1 5α-reductase [14]): selective inhibitor of the type 1 5α-reductase

SMILES: CCCCCCCCCCCCCCCCCC(=O)O [Stearic acid]
- effect on 5α-reductase reduction (PC-3; 5 to 20 μM, words): did not affect
- activity at 5 µM (PC-3; Homo sapiens, PC-3, 5 μM, read-out: 5α-DHT formed (% of control)): 123 ± 2%
- activity at 20 µM (PC-3; Homo sapiens, PC-3, 20 μM, read-out: 5α-DHT formed (% of control)): 121 ± 5%
- 4-Androstendione formed (% of control) ([15]; 5 μM): 103 ± 2 % of control
- 4-Androstendione formed (% of control) ([15]; 20 μM): 106 ± 5 % of control
- effect on metabolism of testosterone to 4-androstenedione (17β-steroid dehydrogenase) ([15]; words): did not affect
- Pigmented Macule, Untreated (L) (hamster flank organ; Table 4, 1 mg fatty acid alone, 18 days): 4.4 ± 0.4 mm^2
- Pigmented Macule, Untreated (L) (hamster flank organ; Table 4, 2 mg fatty acid alone, 18 days): 4.6 ± 1.4 mm^2
- Pigmented Macule, Untreated (L) (hamster flank organ; Table 4, T 0.5 μg + 1 mg fatty acid): 4.3 ± 0.6 mm^2
- Pigmented Macule, Untreated (L) (hamster flank organ; Table 4, T 0.5 μg + 2 mg fatty acid): 4.2 ± 0.4 mm^2
- significance vs T alone (hamster flank organ; Table 4, T + 1 mg fatty acid): N.S.
- significance vs T alone (hamster flank organ; Table 4, T + 2 mg fatty acid): N.S.
- inhibition of T-induced growth of pigmented macule (hamster flank organ; hamster, in vivo): did not inhibit
- visible change in cell morphology [16]: did not produce any visible
- inhibition at 10 µM ([1]; read-out: % Inhibition of [^3 H]4-MA binding, Table 1, 10 μM): < 10%
- inhibition at 40 µM ([1]; read-out: % Inhibition of [^3 H]4-MA binding, Table 1, 40 μM): < 10%
- inhibition at 200 µM ([1]; read-out: % Inhibition of [^3 H]4-MA binding, Table 1, 200 μM): < 10%
- inhibition at 10 µM ([1]; read-out: % Inhibition of [^3 H]4-MA binding, Table 2, 10 μM): < 10%
- inhibition at 40 µM ([1]; read-out: % Inhibition of [^3 H]4-MA binding, Table 2, 40 μM): < 10%
- inhibition at 200 µM ([1]; read-out: % Inhibition of [^3 H]4-MA binding, Table 2, 200 μM): < 10%
